Test results from US20030104089A1, “Minari extract for preventing the induction and metastasis of cancer by carcinogens contained in cigarette smoke, fermented foods or alcoholic drinks” (priority 2000, published 2003).

What was measured:
[1] = humans, calculated; cited from earlier work
[2] = system: PCNA (proliferative cell nuclear antigen); assay: PCNA expression in lung tissue of NNK-treated A/J mice; assay type: in vivo; details: single i.p. NNK 4 mg, normal feed, 4 months, compared to water-only-receiving group
Method: The NNK group received a single administration of 4 mg of NNK. The group receiving NNK-Minari received a single administration of NNK and thereafter a feed to which Minari extract was added at a 1.25% (w/w) concentration. The other group received a normal feed. All the groups were allowed take, ad lib., their feeds for 4 months.
A/J mice were divided into three experimental groups: a single intraperitoneal water administration-receiving (+normal feed) group; a single intraperitoneal NNK (4 mg) administration-receiving (+normal feed) group; and a single intraperitoneal NNK administration-receiving (+feed to which Minari extract is added at a concentration of 1.25%) group. Four months later, the expression level of PCNA in each experimental group was measured.

SMILES | virtually safe dose (VSD) for liver cancer [1] | virtually safe dose (VSD) for lung cancer [1] | expression level of PCNA [2]
CCOC(N)=O [urethane, ethylcarbamate] | 7.2×10^−5 mg/kg body weight | 1.8×10^−4 mg/kg body weight | 
CN(CCCC(=O)c1cccnc1)N=O [NNK, {(4-N-methyl-N-nitrosoamino)-1-(3-pyridyl)-1-butanone}] |  |  | significantly increased
